Series [1] has as its target T1, SCD-1 (Homo sapiens, UniProt O00767).
T1 construct: addition of 125 μg of microsomal fraction of HepG2 cells; host or cells: HepG2 human hepatocarcinoma cells (microsomal fraction)
T1 sequence (O00767 1-359): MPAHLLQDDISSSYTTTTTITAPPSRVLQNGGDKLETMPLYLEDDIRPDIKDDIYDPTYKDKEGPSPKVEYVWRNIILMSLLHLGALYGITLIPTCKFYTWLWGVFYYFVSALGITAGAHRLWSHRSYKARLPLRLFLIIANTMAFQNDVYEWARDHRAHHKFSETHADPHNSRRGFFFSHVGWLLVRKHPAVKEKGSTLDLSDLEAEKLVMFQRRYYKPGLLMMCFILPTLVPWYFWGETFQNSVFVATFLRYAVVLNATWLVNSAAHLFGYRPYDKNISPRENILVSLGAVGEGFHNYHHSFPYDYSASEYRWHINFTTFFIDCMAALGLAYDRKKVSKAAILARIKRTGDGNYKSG
The series can be described thus: Human enzymatic activity of SCD-1 from microsomes of HepG2 cells (conversion of [14C] stearic acid to oleic acid, HPLC). The format is biochemical. The following applies: microsomal fraction of HepG2 cells, 62 μM stearic acid, 20 minutes at 37° C., vs vehicle 0.1% DMSO; read-out: HSCD-1 (HEPG2) IC50. On the procedure:
In vitro: Human enzymatic activity of SCD-1 from microsomes of HepG2 cells after treatment with the inhibitor compounds (% inhibition).
HepG2 cells of human hepatocarcinoma (ATCC, HB-8065) are cultured at confluence then trypsinated. The cell residue is solubilized in 10 mM Tris buffer (pH 7.4) sucrose (250 mM) DTT (1 mM) then the cells are lysed by sonication. The microsomes are obtained after centrifuging at 10,000 g for 20 minutes at 4° C. followed by centifrugation of the supernatant at 100,000 g for 60 minutes at 4° C. The residue is solubilized in 10 mM Tris buffer (pH 7.4) sucrose (250 mM) at 4° C. and the microsomal proteins are assayed and stored at −196° C. (liquid nitrogen).
The enzymatic reaction measures the conversion of stearic acid (C18:0 fatty acid) into oleic acid (C18:1 fatty acid) by SCD-1. The enzymatic reaction is initiated by the addition of 125 μg of microsomal fraction of HepG2 cells to tubes (total reaction volume of 500 μl) containing 62 μM stearic acid (45 μM stearic acid and 17 μM [^14C] stearic acid) in 100 mM phosphate buffer (pH 7.16) with 7.2 mM ATP, 0.54 mM CoA, 6 mM MgCl2, 0.8 mM NADH and the inhibitor compound or vehicle (0.1% DMSO). The tubes are incubated for 20 minutes at 37° C. then the enzymatic reaction is halted by the addition of KOH (12%) and saponification for 30 minutes at 80° C. After acidification (3N HCl), the fatty acids are extracted twice with ethyl ether, evaporated under nitrogen before being solubilized in methanol/dichloromethane (3:1). The reaction product (C18:1) is separated from the reaction substrate (C18:0) by HPLC (Perkin Elmer, C18 reverse phase column) coupled with an in-line radioactivity detector (FlowOne). Enzymatic activity is measured in picomoles of stearic acid converted to oleic acid per minute and per mg of protein. For each inhibitor compound, an IC50 value is determined, compared with the reference enzymatic activity (vehicle 0.1% DMSO). Sterculic acid is the reference inhibitor compound (Gomez F. E., Bauman D. E., Ntambi J. M., Fox B. G. Effects of sterculic acid on stearoyl-CoA desaturase in differentiating […] adipocytes. Biochem Biophys Res Commun. 300 316-326 (2003).

IC50 and melting point data for 11 compounds are collected here from patent publication US8946225B2, “Derivatives of 2H pyridazin-3-ones, their preparation and their use as SCD-1 inhibitors” (Pierre Fabre Medicament, priority 2009, dated 2015).

SMILES strings stand for the structures.

Regarding `Cn1nccc(NC(=O)N2CCC(Oc3ccccc3Cl)CC2)c1=O` [Example 64, 4-(2-chloro-phenoxy)-piperidine-1-carboxylic acid (2-methyl-3-oxo-2,3-dihydro-pyridazin-4-yl)-amide], the melting point was 124 °C. Also, in series [1], the IC50 lay within 300 to 1000 nM.
The like results for `Cn1nccc(NC(=O)N2CCC(Oc3ccc(Cl)c(Cl)c3)CC2)c1=O` [Example 65, 4-(3,4-dichloro-phenoxy)-piperidine-1-carboxylic acid (2-methyl-3-oxo-2,3-dihydro-pyridazin-4-yl)-amide] were, in that order, 154 °C and 1000 nM.
For the compound `Cn1nccc(NC(=O)N2CCC(Oc3ccc(Cl)cc3Cl)CC2)c1=O` [Example 66, 4-(2,4-dichloro-phenoxy)-piperidine-1-carboxylic acid (2-methyl-3-oxo-2,3-dihydro-pyridazin-4-yl)-amide], the melting point came to 140 °C. Besides, the IC50 in series [1] fell in the range of 100 to 1000 nM.
As for `Cn1nccc(NC(=O)N2CCC(Oc3cc(F)cc(C(F)(F)F)c3)CC2)c1=O` [Example 67, 4-(3-fluoro-5-trifluoromethyl-phenoxy)-piperidine-1-carboxylic acid (2-methyl-3-oxo-2,3-dihydro-pyridazin-4-yl)-amide], the melting point is 115 °C. For the same compound, the IC50 in series [1] turned out to be 300 nM.
With `Cc1ccc(F)cc1OC1CCN(C(=O)Nc2ccnn(C)c2=O)CC1` [Example 68, 4-(5-fluoro-2-methyl-phenoxy)-piperidine-1-carboxylic acid (2-methyl-3-oxo-2,3-dihydro-pyridazin-4-yl)-amide], the melting point stood at 142 °C. Also, the IC50 in series [1] is 100 to 1000 nM.
`Cn1nccc(NC(=O)N2CCC(Oc3cc(F)ccc3F)CC2)c1=O` [Example 69, 4-(2,5-difluoro-phenoxy)-piperidine-1-carboxylic acid (2-methyl-3-oxo-2,3-dihydro-pyridazin-4-yl)-amide] gave a melting point of 138 °C. Also, the IC50 in series [1] is 100 to 1000 nM.
`Cn1nccc(NC(=O)N2CCC(Oc3cc(Cl)c(Cl)cc3Cl)CC2)c1=O` [Example 70, 4-(2,4,5-trichloro-phenoxy)-piperidine-1-carboxylic acid (2-methyl-3-oxo-2,3-dihydro-pyridazin-4-yl)-amide] gave a melting point of 154 °C. The IC50 in series [1] was in the range of 100 to 1000 nM.
`Cn1nccc(NC(=O)N2CCC(Oc3cc(F)c(F)cc3Br)CC2)c1=O` [Example 71, 4-(2-bromo-4,5-difluoro-phenoxy)-piperidine-1-carboxylic acid (2-methyl-3-oxo-2,3-dihydro-pyridazin-4-yl)-amide]: the melting point amounted to 143 °C. Moreover, the IC50 in series [1] was 10 to 100 nM.
In the case of `O=C(Nc1ccn[nH]c1=O)N1CCC(Oc2cc(C(F)(F)F)ccc2Cl)CC1` [Example 72, 4-(2-Chloro-5-trifluoromethyl-phenoxy)-piperidine-1-carboxylic acid (3-oxo-2,3-dihydro-pyridazin-4-yl)-amide], the melting point turned out to be 158 °C. Moreover, the IC50 in series [1] was 10 nM.
The like results for `Cn1ncc(NC(=O)N2CCC(Oc3cc(C(F)(F)F)ccc3Cl)CC2)cc1=O` [Example 73, 4-(2-Chloro-5-trifluoromethyl-phenoxy)-piperidine-1-carboxylic acid (1-methyl-6-oxo-1,6-dihydro-pyridazin-4-yl)-amide] were, in that order, 136 °C and 10 to 100 nM.
As for `Cn1nc(NC(=O)N2CCC(Oc3cc(C(F)(F)F)ccc3Cl)CC2)ccc1=O` [Example 74, 4-(2-Chloro-5-trifluoromethyl-phenoxy)-piperidine-1-carboxylic acid (1-methyl-6-oxo-1,6-dihydro-pyridazin-3-yl)-amide], the melting point stood at 155 °C. In series [1], the IC50 was 10 to 100 nM.
